Experimental data as given in paper PMC11118615, “Cloning, Expression, Characterization and Immobilization of a Recombinant Carboxylesterase from the Halophilic Archaeon, Halobacterium salinarum NCR-1” (Biomolecules, 2024).

biological target: T1, rHsEst (recombinant carboxylesterase HsEst) (Halobacterium salinarum, UniProt Q9HPT9); assay: spectrophotometric p-nitrophenol release, Michaelis-Menten nonlinear fit; assay type: biochemical; details: free enzyme; pH 8.0 Tris-HCl, 1 M NaCl, 30 °C (methods print 25 °C)
T1 construct: gene est; synthetic gene in pTA1392, N-terminal 6xHis-tag, expressed in Haloferax volcanii H1209, HisTrap purified
Source text: spectrophotometric p-nitrophenol release, Michaelis-Menten nonlinear fit on rHsEst (recombinant carboxylesterase HsEst)

T1 sequence (Q9HPT9 entry or part of it): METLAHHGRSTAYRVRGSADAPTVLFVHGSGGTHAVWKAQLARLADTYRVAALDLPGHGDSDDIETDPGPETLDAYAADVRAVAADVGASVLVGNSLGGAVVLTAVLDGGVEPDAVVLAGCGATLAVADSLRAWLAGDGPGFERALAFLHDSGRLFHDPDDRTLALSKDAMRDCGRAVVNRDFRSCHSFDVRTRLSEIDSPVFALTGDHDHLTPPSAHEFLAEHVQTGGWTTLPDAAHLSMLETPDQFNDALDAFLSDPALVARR

Point of comparison: CCCCCCCC(=O)Oc1ccc([N+](=O)[O-])cc1 [pNPC8, p-nitrophenyl octanoate], Km 245 ± 26 µM. Against it:
- CC(=O)Oc1ccc([N+](=O)[O-])cc1 [pNPC2, p-nitrophenyl acetate] — within error, 258 ± 51 µM
- CCCCC(=O)Oc1ccc([N+](=O)[O-])cc1 [pNPC5, p-nitrophenyl valerate] — 3.1-fold lower, 78 ± 7 µM
